Values quoted from earlier work in US20240023554A1, “MICROPARTICLE COMPOSITIONS COMPRISING TRIFLUDIMOXAZIN” (BASF SE, priority 2020, published 2024).

Details: background statement

- solubility in water: only sparingly soluble in water
Structure (SMILES): C#CCN1C(=O)C(F)(F)Oc2cc(F)c(-n3c(=O)n(C)c(=S)n(C)c3=O)cc21 [Trifludimoxazin, 1,5-dimethyl-6-thioxo-3-[2,2,7-trifluoro-3-oxo-4-(prop-2-yn-1-yl)-3,4-dihydro-2H-1,4-benzoxazin-6-yl]-1,3,5-triazinane-2,4-dione]
